System: AMPK
Assay: AMPK enzyme activity assay (Delfia technology, AMARA peptide substrate)
Type: biochemical
Details: compound at 30 μM vs AMP at 200 μM
Summary of the method: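 Value is the ratio of compound (30 μM) to AMP (200 μM) response, each as % of basal control. Phosphorylation of the AMARA peptide after AMPK addition was read by Delfia with an anti-phosphoserine antibody.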

COc1cccc(-c2c(Cl)sc3c2C(=O)C(F)(c2ccccc2)C(=O)N3)c1 (centres unmarked) [No 94, 2-chloro-5-fluoro-3-(3-methoxyphenyl)-5-phenyl-7H-thieno[2,3-b]pyridine-4,6-dione]
Activity: Ratio between the % of control (basal activity) of compound of formula (1) at 30 μM and the % of control (basal activity) of AMP (natural substrate) at 200 μM: C (C≧75%)

O=C1Nc2sc(Cl)c(-c3ccccc3)c2C(=O)C1(F)c1cccc(C(F)(F)F)c1 (centres unmarked) [No 95, 2-chloro-5-fluoro-3-phenyl-5-[3-(trifluoro-methyl)phenyl]-7H-thieno[2,3-b]pyridine-4,6-dione]
Activity: Ratio between the % of control (basal activity) of compound of formula (1) at 30 μM and the % of control (basal activity) of AMP (natural substrate) at 200 μM: B (50%≦B<75%)

COc1ccc(-c2c(Cl)sc3c2C(=O)C(C)(c2ccc(C)cc2)C(=O)N3)cc1 (centres unmarked) [No 96, 2-chloro-3-(4-methoxyphenyl)-5-methyl-5-(p-tolyl)-7H-thieno[2,3-b]pyridine-4,6-dione]
Activity: Ratio between the % of control (basal activity) of compound of formula (1) at 30 μM and the % of control (basal activity) of AMP (natural substrate) at 200 μM: A (0%<A<50%)

CS(=O)(=O)c1ccc(C2(F)C(=O)Nc3sc(Cl)c(-c4ccccc4)c3C2=O)cc1 (centres unmarked) [No 97, 2-chloro-5-fluoro-5-(4-methylsulfonylphenyl)-3-phenyl-7H-thieno[2,3-b]pyridine-4,6-dione]
Activity: Ratio between the % of control (basal activity) of compound of formula (1) at 30 μM and the % of control (basal activity) of AMP (natural substrate) at 200 μM: C (C≧75%)

COc1ccccc1-c1c(Cl)sc2c1C(=O)C(F)(c1ccccc1)C(=O)N2 (centres unmarked) [No 98, 2-chloro-5-fluoro-3-(2-methoxyphenyl)-5-phenyl-7H-thieno[2,3-b]pyridine-4,6-dione]
Activity: Ratio between the % of control (basal activity) of compound of formula (1) at 30 μM and the % of control (basal activity) of AMP (natural substrate) at 200 μM: A (0%<A<50%)

COc1ccccc1C1(F)C(=O)Nc2sc(Cl)c(-c3ccc(F)cc3O)c2C1=O (centres unmarked) [No 99, 2-chloro-5-fluoro-3-(4-fluoro-2-hydroxy-phenyl)-5-(2-methoxyphenyl)-7H-thieno[2,3-b]pyridine-4,6-dione]
Activity: Ratio between the % of control (basal activity) of compound of formula (1) at 30 μM and the % of control (basal activity) of AMP (natural substrate) at 200 μM: C (C≧75%)

O=C1Nc2scc(-c3ccccc3)c2C(=O)C1(F)c1ccccc1 (centres unmarked) [No 100, 5-fluoro-3,5-diphenyl-7H-thieno[2,3-b]pyridine-4,6-dione]
Activity: Ratio between the % of control (basal activity) of compound of formula (1) at 30 μM and the % of control (basal activity) of AMP (natural substrate) at 200 μM: B (50%≦B<75%)

O=C1Nc2sc(Cl)c(-c3ccccc3Cl)c2C(=O)C1(F)c1ccccc1 (centres unmarked) [No 101, 2-chloro-3-(2-chlorophenyl)-5-fluoro-5-phenyl-7H-thieno[2,3-b]pyridine-4,6-dione]
Activity: Ratio between the % of control (basal activity) of compound of formula (1) at 30 μM and the % of control (basal activity) of AMP (natural substrate) at 200 μM: B (50%≦B<75%)

Cc1c(F)ccc(-c2csc3c2C(=O)C(F)(c2ccccc2)C(=O)N3)c1O (centres unmarked) [No 102, 5-fluoro-3-(4-fluoro-2-hydroxy-3-methyl-phenyl)-5-phenyl-7H-thieno[2,3-b]pyridine-4,6-dione]
Activity: Ratio between the % of control (basal activity) of compound of formula (1) at 30 μM and the % of control (basal activity) of AMP (natural substrate) at 200 μM: C (C≧75%)

CC1(c2cccc(F)c2)C(=O)Nc2sc(Cl)c(-c3cccc(F)c3)c2C1=O (centres unmarked) [No 103, 2-chloro-3,5-bis(3-fluorophenyl)-5-methyl-7H-thieno[2,3-b]pyridine-4,6-dione]
Activity: Ratio between the % of control (basal activity) of compound of formula (1) at 30 μM and the % of control (basal activity) of AMP (natural substrate) at 200 μM: A (0%<A<50%)

CC1(c2ccccc2F)C(=O)Nc2sc(Cl)c(-c3cccc(F)c3)c2C1=O (centres unmarked) [No 104, 2-chloro-5-(2-fluorophenyl)-3-(3-fluorophenyl)-5-methyl-7H-thieno[2,3-b]pyridine-4,6-dione]
Activity: Ratio between the % of control (basal activity) of compound of formula (1) at 30 μM and the % of control (basal activity) of AMP (natural substrate) at 200 μM: B (50%≦B<75%)

COc1cccc(C2(C)C(=O)Nc3sc(Cl)c(-c4cccc(F)c4)c3C2=O)c1 (centres unmarked) [No 105, 2-chloro-3-(3-fluorophenyl)-5-(3-methoxyphenyl)-5-methyl-7H-thieno[2,3-b]pyridine-4,6-dione]
Activity: Ratio between the % of control (basal activity) of compound of formula (1) at 30 μM and the % of control (basal activity) of AMP (natural substrate) at 200 μM: A (0%<A<50%)

Cc1cccc(C2(C)C(=O)Nc3sc(Cl)c(-c4cccc(F)c4)c3C2=O)c1 (centres unmarked) [No 106, 2-chloro-3-(3-fluorophenyl)-5-methyl-5-(m-tolyl)-7H-thieno[2,3-b]pyridine-4,6-dione]
Activity: Ratio between the % of control (basal activity) of compound of formula (1) at 30 μM and the % of control (basal activity) of AMP (natural substrate) at 200 μM: A (0%<A<50%)

COc1ccccc1-c1c(Cl)sc2c1C(=O)C(C)(c1ccccc1)C(=O)N2 (centres unmarked) [No 107, 2-chloro-3-(2-methoxyphenyl)-5-methyl-5-phenyl-7H-thieno[2,3-b]pyridine-4,6-dione]
Activity: Ratio between the % of control (basal activity) of compound of formula (1) at 30 μM and the % of control (basal activity) of AMP (natural substrate) at 200 μM: A (0%<A<50%)

Cc1c(F)ccc(-c2csc3c2C(=O)C(F)(c2ccc(F)cc2)C(=O)N3)c1O (centres unmarked) [No 108, 5-fluoro-3-(4-fluoro-2-hydroxy-3-methyl-phenyl)-5-(4-fluorophenyl)-7H-thieno[2,3-b]pyridine-4,6-dione]
Activity: Ratio between the % of control (basal activity) of compound of formula (1) at 30 μM and the % of control (basal activity) of AMP (natural substrate) at 200 μM: C (C≧75%)

Cc1ccc(C2(F)C(=O)Nc3scc(-c4ccc(F)cc4O)c3C2=O)cc1 (centres unmarked) [No 109, 5-fluoro-3-(4-fluoro-2-hydroxy-phenyl)-5-(p-tolyl)-7H-thieno[2,3-b]pyridine-4,6-dione]
Activity: Ratio between the % of control (basal activity) of compound of formula (1) at 30 μM and the % of control (basal activity) of AMP (natural substrate) at 200 μM: C (C≧75%)

COc1cc(C)ccc1-c1csc2c1C(=O)C(F)(c1cccc(C#N)c1)C(=O)N2 (centres unmarked) [No 110, 3-[5-fluoro-3-(2-methoxy-4-methyl-phenyl)-4,6-dioxo-7H-thieno[2,3-b]pyridin-5-yl]benzonitrile]
Activity: Ratio between the % of control (basal activity) of compound of formula (1) at 30 μM and the % of control (basal activity) of AMP (natural substrate) at 200 μM: C (C≧75%) | Activity: Ratio between the % of control (basal activity) of compound of formula (1) at 30 μM and the % of control (basal activity) of AMP (natural substrate) at 200 μM (listed as 4): A (0%<A<50%)

COc1cc(C)ccc1-c1c(F)sc2c1C(=O)C(F)(c1cccc(C#N)c1)C(=O)N2 (centres unmarked) [No 111, 3-[2,5-difluoro-3-(2-methoxy-4-methyl-phenyl)-4,6-dioxo-7H-thieno[2,3-b]pyridin-5-yl]benzonitrile]
Activity: Ratio between the % of control (basal activity) of compound of formula (1) at 30 μM and the % of control (basal activity) of AMP (natural substrate) at 200 μM: C (C≧75%) | Activity: Ratio between the % of control (basal activity) of compound of formula (1) at 30 μM and the % of control (basal activity) of AMP (natural substrate) at 200 μM (listed as 5): A (0%<A<50%)

COc1cccc(O)c1-c1csc2c1C(=O)C(F)(c1ccccc1)C(=O)N2 (centres unmarked) [No 112, 5-fluoro-3-(2-hydroxy-6-methoxy-phenyl)-5-phenyl-7H-thieno[2,3-b]pyridine-4,6-dione]
Activity: Ratio between the % of control (basal activity) of compound of formula (1) at 30 μM and the % of control (basal activity) of AMP (natural substrate) at 200 μM: A (0%<A<50%)

COc1cc(-c2csc3c2C(=O)C(F)(c2ccccc2)C(=O)N3)ccc1C (centres unmarked) [No 113, 5-fluoro-3-(3-methoxy-4-methyl-phenyl)-5-phenyl-7H-thieno[2,3-b]pyridine-4,6-dione]
Activity: Ratio between the % of control (basal activity) of compound of formula (1) at 30 μM and the % of control (basal activity) of AMP (natural substrate) at 200 μM: B (50%≦B<75%)

COc1cc(-c2c(F)sc3c2C(=O)C(F)(c2ccccc2)C(=O)N3)ccc1C (centres unmarked) [No 114, 2,5-difluoro-3-(3-methoxy-4-methyl-phenyl)-5-phenyl-7H-thieno[2,3-b]pyridine-4,6-dione]
Activity: Ratio between the % of control (basal activity) of compound of formula (1) at 30 μM and the % of control (basal activity) of AMP (natural substrate) at 200 μM: B (50%≦B<75%)

Cc1ccc(-c2csc3c2C(=O)C(F)(c2ccccc2)C(=O)N3)cc1O (centres unmarked) [No 115, 5-fluoro-3-(3-hydroxy-4-methyl-phenyl)-5-phenyl-7H-thieno[2,3-b]pyridine-4,6-dione]
Activity: Ratio between the % of control (basal activity) of compound of formula (1) at 30 μM and the % of control (basal activity) of AMP (natural substrate) at 200 μM: C (C≧75%)

Cc1ccc(-c2c(F)sc3c2C(=O)C(F)(c2ccccc2)C(=O)N3)cc1O (centres unmarked) [No 116, 2,5-difluoro-3-(3-hydroxy-4-methyl-phenyl)-5-phenyl-7H-thieno[2,3-b]pyridine-4,6-dione]
Activity: Ratio between the % of control (basal activity) of compound of formula (1) at 30 μM and the % of control (basal activity) of AMP (natural substrate) at 200 μM: C (C≧75%)

Cc1ccc(C2(C)C(=O)Nc3sc(Cl)c(-c4cccc(C)c4)c3C2=O)cc1 (centres unmarked) [No 117, 2-chloro-5-methyl-3-(m-tolyl)-5-(p-tolyl)-7H-thieno[2,3-b]pyridine-4,6-dione]
Activity: Ratio between the % of control (basal activity) of compound of formula (1) at 30 μM and the % of control (basal activity) of AMP (natural substrate) at 200 μM: A (0%<A<50%)

COc1cc(C)ccc1-c1csc2c1C(=O)C(F)(c1ccccc1)C(=O)N2 (centres unmarked) [No 118, 5-fluoro-3-(2-methoxy-4-methyl-phenyl)-5-phenyl-7H-thieno[2,3-b]pyridine-4,6-dione]
Activity: Ratio between the % of control (basal activity) of compound of formula (1) at 30 μM and the % of control (basal activity) of AMP (natural substrate) at 200 μM: B (50%≦B<75%)

COc1cc(C)ccc1-c1c(F)sc2c1C(=O)C(F)(c1ccccc1)C(=O)N2 (centres unmarked) [No 119, 2,5-difluoro-3-(2-methoxy-4-methyl-phenyl)-5-phenyl-7H-thieno[2,3-b]pyridine-4,6-dione]
Activity: Ratio between the % of control (basal activity) of compound of formula (1) at 30 μM and the % of control (basal activity) of AMP (natural substrate) at 200 μM: B (50%≦B<75%)

CS(=O)(=O)c1cccc(-c2csc3c2C(=O)C(F)(c2ccccc2)C(=O)N3)c1 (centres unmarked) [No 120, 5-fluoro-3-(3-methylsulfonylphenyl)-5-phenyl-7H-thieno[2,3-b]pyridine-4,6-dione]
Activity: Ratio between the % of control (basal activity) of compound of formula (1) at 30 μM and the % of control (basal activity) of AMP (natural substrate) at 200 μM: A (0%<A<50%)

Cc1ccc(-c2csc3c2C(=O)C(F)(c2ccccc2)C(=O)N3)c(O)c1 (centres unmarked) [No 121, 5-fluoro-3-(2-hydroxy-4-methyl-phenyl)-5-phenyl-7H-thieno[2,3-b]pyridine-4,6-dione]
Activity: Ratio between the % of control (basal activity) of compound of formula (1) at 30 μM and the % of control (basal activity) of AMP (natural substrate) at 200 μM: C (C≧75%)

O=C1Nc2scc(-c3c(F)cccc3F)c2C(=O)C1(F)c1ccccc1 (centres unmarked) [No 122, 3-(2,6-difluorophenyl)-5-fluoro-5-phenyl-7H-thieno[2,3-b]pyridine-4,6-dione]
Activity: Ratio between the % of control (basal activity) of compound of formula (1) at 30 μM and the % of control (basal activity) of AMP (natural substrate) at 200 μM: C (C≧75%)

O=C1Nc2scc(-c3ccc(Br)cc3O)c2C(=O)C1(F)c1ccccc1 (centres unmarked) [No 123, 3-(4-bromo-2-hydroxy-phenyl)-5-fluoro-5-phenyl-7H-thieno[2,3-b]pyridine-4,6-dione]
Activity: Ratio between the % of control (basal activity) of compound of formula (1) at 30 μM and the % of control (basal activity) of AMP (natural substrate) at 200 μM: C (C≧75%)

Source: US9365584B2, “Thieno [2,3-B] pyridinedione activators of AMPK and therapeutic uses thereof” (Poxel, priority 2009, dated 2016)
